Experimental data: ChEMBL document CHEMBL1201862, “PubChem BioAssay data set” (2004)
The source made the active and inactive calls.

What was measured:
[1] = target: T1, Tyrosine-protein phosphatase non-receptor type 7 (Homo sapiens, UniProt P35236); test: inhibitors of human HePTP phosphatase, […], biochemical, absorbance, leukemia target (AID 521); format: functional
T1 sequence (P35236 whole entry): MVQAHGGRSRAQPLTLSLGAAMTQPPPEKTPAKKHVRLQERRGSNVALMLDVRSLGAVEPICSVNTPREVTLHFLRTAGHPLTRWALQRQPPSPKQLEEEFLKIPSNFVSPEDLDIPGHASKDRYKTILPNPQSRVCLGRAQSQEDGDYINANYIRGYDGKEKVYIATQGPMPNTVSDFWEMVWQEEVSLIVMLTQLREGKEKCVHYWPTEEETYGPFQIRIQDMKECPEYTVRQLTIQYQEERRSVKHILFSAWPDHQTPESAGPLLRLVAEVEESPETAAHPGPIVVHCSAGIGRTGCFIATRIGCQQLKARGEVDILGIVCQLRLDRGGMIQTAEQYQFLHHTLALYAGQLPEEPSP

[2] = target: Sphingosine 1-phosphate receptor 2 (Homo sapiens, UniProt O95136); test: Dose Response Cell Based Assay for Agonists of the S1P2 Receptor. [Related pubchem assays: 729, 736, 843 ]; format: functional
Sphingosine 1-phosphate receptor 2, sequence (O95136 whole entry): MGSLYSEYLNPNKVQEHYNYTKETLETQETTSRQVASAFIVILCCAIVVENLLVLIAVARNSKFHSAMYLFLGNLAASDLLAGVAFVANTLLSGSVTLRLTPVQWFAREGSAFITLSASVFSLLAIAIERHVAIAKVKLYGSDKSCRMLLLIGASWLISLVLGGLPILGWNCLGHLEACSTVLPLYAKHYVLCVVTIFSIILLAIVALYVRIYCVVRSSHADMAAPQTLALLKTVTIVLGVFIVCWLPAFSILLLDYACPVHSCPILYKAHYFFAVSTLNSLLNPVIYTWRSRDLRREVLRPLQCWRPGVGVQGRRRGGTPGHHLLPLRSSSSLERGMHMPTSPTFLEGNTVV

[3] = Jurkat T cell cytotoxicity, dose response, cytotoxicity control for P. falciparum gametocyte viability project, luminescence (AID 1117277); format: functional, cell-based;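 also: potency reflects loss of cellular ATP meaning fewer viable cells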
[4] = P. falciparum late gametocyte killing, dose response, luminescence (AID 1117278); format: functional, cell-based;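 also: gametocytes exposed to compound for 24 hours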
cells [5] = format: functional, cell-based
cells [6] = format: functional, cell-based; remark: listed apart in the source
[7] = target: Mitogen-activated protein kinase 10 (Homo sapiens, UniProt P53779); test: Dose response biochemical screening assay for inhibitors of c-Jun N-Terminal Kinase 3 (JNK3). [Related pubchem assays: 746 ]
Mitogen-activated protein kinase 10, sequence (P53779 whole entry): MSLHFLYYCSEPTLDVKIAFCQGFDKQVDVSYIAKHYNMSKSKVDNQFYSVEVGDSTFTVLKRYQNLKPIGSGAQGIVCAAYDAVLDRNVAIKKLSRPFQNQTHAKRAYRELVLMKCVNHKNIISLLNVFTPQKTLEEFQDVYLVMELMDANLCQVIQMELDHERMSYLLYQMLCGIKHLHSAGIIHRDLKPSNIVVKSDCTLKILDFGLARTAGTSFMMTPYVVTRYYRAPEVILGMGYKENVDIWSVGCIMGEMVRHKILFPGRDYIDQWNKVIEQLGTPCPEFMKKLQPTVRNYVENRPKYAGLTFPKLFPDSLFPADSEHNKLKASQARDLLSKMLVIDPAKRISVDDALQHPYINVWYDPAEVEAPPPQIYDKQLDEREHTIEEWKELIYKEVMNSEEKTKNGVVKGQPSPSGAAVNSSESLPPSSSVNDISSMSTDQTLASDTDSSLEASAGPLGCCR

[8] = microbe, parasite or virus in culture; format: functional; settings: Mycobacterium tuberculosis
Protein skinhead-1 = target: T2, Protein skinhead-1 (Caenorhabditis elegans, UniProt P34707); format: functional
T2 sequence (P34707 whole entry): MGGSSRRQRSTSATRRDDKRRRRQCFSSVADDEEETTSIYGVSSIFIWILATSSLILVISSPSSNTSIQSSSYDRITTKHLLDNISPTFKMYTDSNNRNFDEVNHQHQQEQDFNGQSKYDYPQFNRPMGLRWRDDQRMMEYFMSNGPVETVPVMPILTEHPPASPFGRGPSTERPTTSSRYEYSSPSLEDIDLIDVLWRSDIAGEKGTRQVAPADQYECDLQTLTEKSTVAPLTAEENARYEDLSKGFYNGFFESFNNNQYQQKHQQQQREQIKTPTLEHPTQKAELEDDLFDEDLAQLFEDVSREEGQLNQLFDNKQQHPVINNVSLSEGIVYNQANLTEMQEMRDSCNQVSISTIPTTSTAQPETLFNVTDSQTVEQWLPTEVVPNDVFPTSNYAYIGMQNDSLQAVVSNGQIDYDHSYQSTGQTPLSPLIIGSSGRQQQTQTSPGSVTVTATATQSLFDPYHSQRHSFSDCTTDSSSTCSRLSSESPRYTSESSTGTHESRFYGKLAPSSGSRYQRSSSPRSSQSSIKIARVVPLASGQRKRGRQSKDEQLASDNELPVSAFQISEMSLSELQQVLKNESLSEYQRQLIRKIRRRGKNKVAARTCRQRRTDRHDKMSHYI

[9] = target: T3, Runt-related transcription factor 1/Core-binding factor subunit beta (Homo sapiens, UniProt Q01196+Q13951); test: inhibitors of RUNX1 Runt–CBFb-SMMHC binding, primary screen, biochemical, FRET, Cerulean-Runt, Venus-CBFb-SMMHC, uHTS (AID 1434); format: protein assay;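 also: partner is the CBFb-SMMHC leukemia fusion protein rather than wild-type CBFb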
T3 sequence (Q01196 whole entry, the tested form may be a part): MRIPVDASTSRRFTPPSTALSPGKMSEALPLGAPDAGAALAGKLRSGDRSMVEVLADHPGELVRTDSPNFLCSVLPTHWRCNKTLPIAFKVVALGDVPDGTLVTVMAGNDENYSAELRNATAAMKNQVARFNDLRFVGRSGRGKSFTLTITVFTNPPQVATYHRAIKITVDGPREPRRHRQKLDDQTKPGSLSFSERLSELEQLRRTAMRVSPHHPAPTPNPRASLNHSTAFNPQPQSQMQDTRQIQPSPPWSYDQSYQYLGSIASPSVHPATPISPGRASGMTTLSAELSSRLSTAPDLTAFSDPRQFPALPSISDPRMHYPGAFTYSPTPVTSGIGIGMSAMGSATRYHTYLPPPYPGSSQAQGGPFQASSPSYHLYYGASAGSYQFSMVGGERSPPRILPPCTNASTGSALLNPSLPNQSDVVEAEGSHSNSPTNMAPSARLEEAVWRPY
T3 sequence (Q13951 whole entry, the tested form may be a part): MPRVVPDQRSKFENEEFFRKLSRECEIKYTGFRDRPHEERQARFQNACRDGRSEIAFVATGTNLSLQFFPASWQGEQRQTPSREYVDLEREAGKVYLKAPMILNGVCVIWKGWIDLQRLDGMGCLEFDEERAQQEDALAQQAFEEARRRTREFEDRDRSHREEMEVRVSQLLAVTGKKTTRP

[10] = Artemis endonuclease inhibitor potency, dose response, biochemical, fluorescence intensity (AID 720701); format: functional;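 also: Artemis endonuclease enzyme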
[11] = target: T3, Runt-related transcription factor 1/Core-binding factor subunit beta; test: inhibitors of RUNX1 Runt–CBFb-SMMHC binding, biochemical, TR-FRET (AID 1438); format: protein assay
[12] = target: Disintegrin and metalloproteinase domain-containing protein 17 (Homo sapiens, UniProt P78536); test: ADAM17 protease inhibitors, dose response, counter-screen for ADAM10 exosite inhibitor project, biochemical, quenched FRET substrate (AID 743253)
Disintegrin and metalloproteinase domain-containing protein 17, sequence (P78536 whole entry, the tested form may be a part): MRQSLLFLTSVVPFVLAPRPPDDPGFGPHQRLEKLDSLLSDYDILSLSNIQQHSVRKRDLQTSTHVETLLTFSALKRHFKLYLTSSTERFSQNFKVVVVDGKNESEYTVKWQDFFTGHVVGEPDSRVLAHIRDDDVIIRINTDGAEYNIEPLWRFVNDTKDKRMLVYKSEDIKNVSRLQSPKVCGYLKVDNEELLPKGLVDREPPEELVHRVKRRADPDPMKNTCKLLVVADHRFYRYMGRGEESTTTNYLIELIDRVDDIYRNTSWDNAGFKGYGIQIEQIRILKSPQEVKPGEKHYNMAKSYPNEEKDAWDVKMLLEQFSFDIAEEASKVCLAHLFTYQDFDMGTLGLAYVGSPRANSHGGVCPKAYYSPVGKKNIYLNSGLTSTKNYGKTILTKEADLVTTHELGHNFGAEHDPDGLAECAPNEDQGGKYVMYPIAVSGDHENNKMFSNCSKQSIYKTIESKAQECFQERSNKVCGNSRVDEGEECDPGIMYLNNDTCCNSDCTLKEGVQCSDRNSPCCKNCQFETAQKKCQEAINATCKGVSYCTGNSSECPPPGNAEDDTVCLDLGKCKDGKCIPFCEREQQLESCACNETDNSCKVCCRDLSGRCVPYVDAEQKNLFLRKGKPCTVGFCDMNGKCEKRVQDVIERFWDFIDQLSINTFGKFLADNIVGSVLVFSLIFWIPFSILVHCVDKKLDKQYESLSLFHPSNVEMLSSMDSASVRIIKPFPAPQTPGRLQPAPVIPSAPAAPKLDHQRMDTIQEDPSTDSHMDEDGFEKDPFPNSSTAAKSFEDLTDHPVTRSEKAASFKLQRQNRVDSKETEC

[13] = ADAM10 inhibitors, peptide cleavage, dose response, biochemical, QFRET (AID 743254);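 also: ADAM10 enzyme with the DM2 quenched FRET peptide as substrate; EDANS fluorescence gain as the protease cuts the substrate; inhibitor potency against ADAM10 proteolytic activity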
[14] = Shn3 3'UTR reporter inhibitors, dose response, cell-based, Clone20 osteoblasts, firefly luciferase, cherry-picked (AID 624132); format: functional;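 also: firefly luciferase luminescence from reporter carrying the Shn3 3'UTR in osteoblasts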
[15] = HepG2 cell cytotoxicity, dose response, cytotoxicity control for Shn3 inhibitor project, CellTiter-Glo, cherry-picked (AID 624134); format: functional, cell-based
[16] = Luminescence Cell-Based Dose Retest to Confirm Inhibitors of Cancer Stem Cells. [Related pubchem assays (depositor defined):AID2717, AID2721]; format: functional; settings: Homo sapiens
H9c2 = test: cells; format: functional, cell-based; settings: Rattus norvegicus, H9c2, Myocardium;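 also: confirmatory concentration-response retest of ultra-high-throughput screening hits for modulation of myocardial damage; cell death induced by hydrogen peroxide oxidative stress; compound pretreatment for 60 min then peroxide exposure for 2 h; potency is for protecting the cells against peroxide damage rather than for killing them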
[17] = target: E3 ubiquitin-protein ligase Mdm2 (Homo sapiens, UniProt Q00987); test: enhancers of MDM2-luciferase reporter signal, concentration-effect titration, project on inhibitors of MDM2 ubiquitin ligase, cellular assay, luminescent readout, 384-well plate format (AID 1394); format: functional;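 also: MDM2 E3 inhibitors raise luminescence so EC50 is for signal enhancement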
E3 ubiquitin-protein ligase Mdm2, sequence (Q00987 whole entry): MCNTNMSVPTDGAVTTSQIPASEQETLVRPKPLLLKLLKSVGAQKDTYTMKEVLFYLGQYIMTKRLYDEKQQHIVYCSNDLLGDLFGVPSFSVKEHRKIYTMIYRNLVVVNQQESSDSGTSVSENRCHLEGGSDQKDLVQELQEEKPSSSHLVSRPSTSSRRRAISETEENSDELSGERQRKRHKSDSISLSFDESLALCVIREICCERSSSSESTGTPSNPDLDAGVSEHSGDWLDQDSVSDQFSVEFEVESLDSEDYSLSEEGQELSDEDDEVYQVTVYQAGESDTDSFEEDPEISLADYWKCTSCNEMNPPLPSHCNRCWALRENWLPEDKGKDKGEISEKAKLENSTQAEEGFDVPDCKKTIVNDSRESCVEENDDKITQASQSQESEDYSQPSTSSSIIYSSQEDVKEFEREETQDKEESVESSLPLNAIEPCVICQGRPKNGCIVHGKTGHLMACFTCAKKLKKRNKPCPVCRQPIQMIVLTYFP

CCCCNC(=O)c1cc(-c2ccc(OC)c(OC)c2)on1
IC50 [1]: > 100 µM (not active)

O=S(=O)(Cc1ccc(Cl)cc1)NCC1CCCO1 (stereo not drawn)
EC50 [2]: > 50 µM (not active)

CCN(CC)c1ccc(C(=O)OCC(=O)N2CCN(c3ccccc3)CC2)cc1
IC50 [1]: > 100 µM (not active)

Cc1ccc(CNC(=O)C2CCN(S(=O)(=O)N3CCCCC3)CC2)cc1
IC50 [3]: > 83.4 µM (inactive) | IC50 [4]: > 109 µM (inactive)

CCOC(=O)C1(C)NC(c2ccc(OC)cc2OC)C2C(=O)N(CC)C(=O)C21 (stereo not drawn)
IC50 [3]: > 83.3 µM (inactive) | IC50 [4]: > 109 µM (inactive) | EC50 (cells [5]): > 350 µM (not active) | EC50 (cells [6]): > 350 µM (not active)

COc1ccc(NC(=O)CCCCn2c(=O)[nH]c3ccccc3c2=O)cc1
IC50 [7]: 55.1 µM (not active)

COc1cc(NC(=O)c2ccc(COc3ccccc3Br)o2)cc(OC)c1OC
CC50 [8]: > 40 µM (active) | IC50 [7]: 33 µM (not active)

N=c1c(C(=O)NCc2ccccc2)cc2c(=O)n3ccccc3nc2n1Cc1ccco1
IC50 (Protein skinhead-1): > 100 µM (inactive) | IC50 [9]: 2.34 µM (active) | IC50 [10]: > 20 µM (inactive) | IC50 [11]: 36.6 µM (active)

COc1cccc(CNC(=O)CN(c2cc(C)cc(C)c2)S(=O)(=O)c2c(C)noc2C)c1
EC50 [2]: > 50 µM (not active)

C[C@@H]1CN([C@@H](C)CO)C(=O)c2cc(NC(=O)Nc3ccc(F)cc3)ccc2O[C@@H]1CN(C)Cc1ccc(Oc2ccccc2)cc1
IC50 [12]: > 69.5 µM (inactive) | IC50 [13]: > 2.58 µM (active) | AC50 [14]: 9.38 µM (active) | AC50 [15]: 18.7 µM (active) | AC50 [16]: 2.95 µM (active)

CCCCCCn1cnc2c(c1=O)c1nc3ccccc3nc1n2/N=C/c1ccco1
IC50 [10]: > 20 µM (inactive) | IC50 (H9c2): 19.1 µM (active)

CCOc1ccc(-n2c(SCC(=O)Nc3ccc(S(=O)(=O)Nc4nccs4)cc3)nnc2-c2ccc(C(C)(C)C)cc2)cc1
IC50 [12]: > 69.5 µM (inactive) | IC50 [13]: 9.71 µM (active)

COc1ccc(OCC(=O)N/N=C(\C)CC(=O)Nc2cccc([N+](=O)[O-])c2)cc1
EC50 [17]: 15.7 µM (not active)

O=C1CN(c2cc(Cl)cc(Cl)c2)C(=O)CN1/N=C/c1cccnc1
EC50 [17]: 0.01 µM (not active)
